In the METLIN SMRT retention time set (Domingo-Almenara et al. 2019):

Test: gradient 5% acetonitrile 3 min, to 50% in 2 min, to 85% in 15 min, held 3 min, 100 µL/min
Details: column: Zorbax Extend-C18 2.1 x 50 mm; eluents: water / acetonitrile, 0.1% formic acid
In short: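 Pure standards were run in mixtures of ~100 molecules by HPLC coupled to a quadrupole time-of-flight mass spectrometer. The column was a Zorbax Extend-C18 (2.1 × 50 mm, 1.8 μm) at 100 μL/min, with water and acetonitrile each containing 0.1% formic acid, in positive and negative ionization mode. Dead and dwell volumes were 40 μL and 900 μL. Retention time was taken from computationally picked adduct peaks, each manually inspected, with data collected over 3 months.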

RP-LC retention time | SMILES
660 s | CCCc1cc(NCCN(C)C)n2ncc(-c3ccccc3)c2n1
716 s | COc1ccccc1CN1CCc2nc(N3CCN(c4ncccn4)CC3)ncc2C1
678 s | CCn1cc(C)c(C(=O)O)c1CC(=O)Nc1cccc(C)n1
775 s | COCCN1C(=O)Cc2ccccc2C1C(=O)NCc1ccccc1Br (centres undefined)
724 s | COc1ccc(Cc2nc(-c3ccc4nnc(C)n4c3)no2)cc1OC
571 s | CC(C)n1cnc(S(=O)(=O)N2CCC(C(=O)N3CCN(c4ccccn4)CC3)CC2)c1
644 s | Cc1cc(NC(=O)Cn2ccn3nc(-c4ccccc4)c(CO)c3c2=O)n[nH]1
797 s | COCCC(=O)N1CCC(Oc2nccnc2N2CCc3ccccc32)C1 (centres undefined)
948 s | O=C(Nc1ccc(Cl)c(C(F)(F)F)c1)C1CCN(C(=O)C2Sc3ccccc3NC2=O)CC1 (centres undefined)
887 s | O=C(O)c1ccc2c(c1Sc1ccccc1)C(=O)c1ccccc1C2=O
1160 s | COc1cccc(Cn2c(=O)c3sccc3n(Cc3nc(-c4cccc(C)c4)no3)c2=O)c1
827 s | Cc1cc(S(=O)(=O)N2CCC(n3c(-c4ccoc4)nc4cccnc43)C2)ccc1F (centres undefined)
966 s | Cc1cc(C)cc(Nc2nc(C)cc(=O)n2CC(=O)Nc2ccc(Br)cc2)c1
752 s | CC(C)CNC(=O)c1ccc2c(c1)Sc1ncccc1C(=O)N2C1CC1
571 s | CCN1CCCC1CNC(=O)CN1C(=O)CCn2nc(-c3cn(C)c4ccccc34)cc21 (centres undefined)
892 s | CC1CCC(NC(=O)Cn2nc(C(=O)N3CCCC3)c3ccccc32)CC1 (centres undefined)
826 s | CC(CNC(=O)C1CCN(C(=O)c2ncn3c2COC(c2ccccc2)C3)CC1)c1ccccc1 (centres undefined)
776 s | O=C1NC(c2cccc3ccccc23)Nc2ccccc21 (centres undefined)
609 s | CCOC(=O)c1noc2nc(C)nc(NCC3CCN(Cc4cccc(C)c4)CC3)c12
755 s | COC(=O)c1cc(OCC(=O)Nc2ccc3c(c2)OCCO3)c2ccccc2n1
957 s | Cc1cc2nc(C(F)(F)F)c(=O)n(C(C)C(=O)N3CCN(C(=O)c4ccco4)CC3)c2cc1C (centres undefined)
936 s | Cc1cc(C)cc(N2CCC(NC(=O)Nc3ccccc3Cl)C2=O)c1 (centres undefined)
581 s | Cc1scc2nc(C(=O)NC(C)C)nc(N(C)C)c12

RP-LC retention time | SMILES
979 s | CC(C)c1cc(C(=O)NC2CCCC2)nc2ccnn12
652 s | O=C(NCCc1ccccc1)N1CCC(OC2CCN(Cc3ccccc3)CC2)CC1
848 s | CCCn1cc(CCNS(=O)(=O)c2ccc(F)cc2F)c2cccnc21
642 s | COc1ccc(CCNC(=O)c2ccco2)cc1OC
863 s | Cc1cccc(Nc2nc(C(=O)NCCc3cccs3)nc3ccccc23)c1
1060 s | Cc1cc(C)c(NC(=O)COc2cc(C(F)(F)F)c3c(C)nn(C)c3n2)c(C)c1
844 s | O=C(Nc1cccc(F)c1)C1CC(=O)N(CCc2c[nH]c3ccc(Cl)cc23)C1 (centres undefined)
650 s | CCCC(=O)Nc1cc(-c2nc3ccc(C)cc3[nH]2)ccc1C
951 s | Cc1cc(C)n(Cc2nc(-c3ccc(NC(=O)c4sccc4C)cc3)oc2C)n1
593 s | Cc1nc(C2CCCCN2C(=O)c2ccco2)n[nH]1 (centres undefined)
909 s | Cc1ccc(-c2cc3c(=O)n(Cc4nc(-c5ccccn5)no4)ccn3n2)cc1C
1180 s | CCc1nc(-n2cccc2)sc1C(=O)Nc1ccc(Cl)cc1
846 s | CSc1ccc(NC(=O)Nc2ccccc2C(N)=O)cc1
910 s | CC[C@H](C)C(=O)O[C@H]1CCC=C2C=C[C@H](C)[C@H](CC[C@@H](O)C[C@@H](O)CC(=O)O)[C@H]21
715 s | O=C(CCS(=O)(=O)c1ccccc1)NCCOc1ccc(-c2ccc(F)cc2)nn1
939 s | Cc1csc(-c2ccc(CNC(=O)c3cc(F)cc(F)c3)cc2)n1
1340 s | Cc1ccc(Cn2c(C(=O)NC3CCC(C)CC3)cc3sccc32)cc1 (centres undefined)
924 s | Cc1csc(-c2cc(S(=O)(=O)Nc3cc(Cl)ccc3F)cn2CC(=O)N2CCCC2)n1
782 s | Cc1ccc(CNC(=O)c2ccc(-c3cncnc3)nc2)cc1C
1050 s | C=Cc1ccc(Cn2nc3c(S(=O)(=O)N4CCc5ccccc5C4)cccn3c2=O)cc1
1180 s | O=C(Nc1cccc2c(=O)cc(-c3nn[nH]n3)oc12)c1ccc(OCCCCc2ccccc2)cc1
936 s | CCOC(=O)c1[nH]c(C)c(CN(Cc2ccco2)C(=O)Nc2ccc(F)cc2)c1C

Further lines, the compound ahead of its results:

SMILES | RP-LC retention time
CCc1cccc(NC(=O)c2cc(C(C)C)n3nccc3n2)c1 | 1240 s
CN(C)c1ccc(C(CNC(=O)CN2C(=O)c3ccccc3C2=O)N2CCCC2)cc1 (centres undefined) | 559 s
Cc1nc(C2(C)CCN(S(=O)(=O)c3ccccc3C(F)(F)F)CC2)no1 | 963 s
COc1ccccc1OCCNc1nc2ccncc2n(C(C)C)c1=O | 573 s
Cc1ccc(-c2cc3c(=O)n(CC(O)c4ccc(C)c(C)c4)ccn3n2)c(C)c1 (centres undefined) | 1080 s
CCc1nnc(-c2ccc3ccn(CC(=O)N4CCN(c5cccc(OC)c5)CC4)c3c2)o1 | 864 s
COc1ccc(S(=O)(=O)NCc2cccnc2-c2ccc(C)cc2)cc1 | 679 s
COc1ccc2c(c1)c(CN1CCOCCNC(=O)CC1)cn2C(C)C | 642 s
CCCn1c(=O)c(C)nc2cc(-c3noc(Cc4ccc(OC)cc4)n3)ccc21 | 1040 s
CCCn1nnc(NCc2ccc(-c3cccc(Cl)c3)o2)n1 | 1090 s
CC(C)CN1CCN(C(=O)c2nnc(-c3ccc(S(=O)(=O)N(C)C)cc3)o2)CC1 | 608 s
Cc1cc(C)cc(C(=O)N2CCCC(C(=O)Nc3c(C)cc(C)cc3C)C2)c1 (centres undefined) | 983 s
COC(=O)C1=CN(c2ccc(F)cc2C)c2cc(F)ccc2S1(=O)=O | 895 s
O=C(NCc1ccc(F)cc1)C1CCCN(c2ccc3cc(S(=O)(=O)N4CCCC4)ccc3n2)C1 (centres undefined) | 754 s
CCCCN(C)C(=O)C1CCN(c2cncnc2N(C)C)CC1 | 611 s
O=c1ccc(-c2nc(-c3ccncc3)no2)nn1Cc1cccc(Br)c1 | 919 s
CON(C)C(=O)C1CN(C(=O)COc2ccccc2F)C1 | 629 s
CCC(CC)C(=O)N1CCc2c(c(C(=O)N3CCCC(C(=O)Nc4ccccc4C)C3)nn2C)C1 (centres undefined) | 817 s
O=C(NC1CCCC1)C1c2ccccc2C(=O)N1Cc1ccc(F)cc1 (centres undefined) | 862 s
COC1CCC12CCN(C(=O)c1ccc(Cc3c(C)n[nH]c3C)o1)CC2 (centres undefined) | 656 s
CN(C)C(=O)/N=N/C(=O)N(C)C | 597 s
CCSc1nnc(-c2nn(C)c3c2CN(S(=O)(=O)c2ccc(F)cc2)CC3)n1CC | 943 s

SMILES | RP-LC retention time
O=C(NCc1ccco1)c1c(O)c2cccnc2n(-c2cccc(F)c2)c1=O | 1070 s
COc1ccc(-n2ccc(=O)c(-c3nc(-c4cc(OC)cc(OC)c4)no3)n2)cc1 | 887 s
CCc1ccc(CNC(=O)c2cc3c(=O)n(C)c(=O)n(C)c3s2)cc1 | 830 s
O=C(CN1CC=C(c2cnn(-c3ccccc3)c2)CC1)N1CCCc2ccccc21 | 726 s
O=C(NCCN1CCCC1)c1cc2n(n1)CCCN(Cc1ccc(Cl)cc1)C2=O | 627 s
COc1ccc(-c2nc(-c3ccc(NS(C)(=O)=O)cc3)no2)c(OC)c1 | 885 s
Cc1ccc(C)c(CNc2nc3ccncc3n(Cc3ccccc3)c2=O)c1 | 798 s
O=C(Nc1ccccc1)Nc1ccccc1 | 767 s
Cn1nccc1C(=O)Nc1ccc(OCc2nnc(-c3ccccc3)o2)cc1 | 786 s
COCCn1cc(CCNC(=O)Nc2c(F)cccc2F)c2cccnc21 | 660 s
Cc1ccn2c(Nc3ccccc3C)c(-c3ccc(N(C)C)cc3)nc2c1 | 809 s
COc1ccc(-n2c(=O)c(C(=O)Nc3cc(F)cc(F)c3)c(O)c3cccnc32)cc1 | 1300 s
Cc1ccc(CNC(=O)C2(C)CCN(S(=O)(=O)c3ccc(Br)s3)CC2)cc1 | 1050 s
Cc1nn(CC(=O)NCCc2ccco2)c(=O)c2c(C)n(-c3ccccc3)nc12 | 774 s
Cc1cccc(NC(=O)N2CCCC2c2nc(-c3ccc(F)cc3F)no2)c1C (centres undefined) | 981 s
Cc1ccc(-n2c(=O)n(CC(=O)Nc3cccc(C)c3C)c3cccnc32)cc1 | 907 s
O=C(c1cccs1)N1[C@H]2CC[C@@H]1c1cnc(-c3ccccc3)nc1C2 | 907 s
Cc1c(C(=O)NC2CCCCC2)cnn1-c1cc(-c2nc(C3CC3)no2)ccn1 | 1060 s
CCCCC(=O)Nc1nc(-c2ccc(C)cc2C)cs1 | 1100 s
CCC(CC)C(=O)Nc1nc(-c2ccc(Cl)cc2)cs1 | 1150 s
Cc1ccc(F)cc1NC(=O)Cn1cnc2nc(N3CCCC(C(=O)NC4CC4)C3)sc2c1=O (centres undefined) | 686 s
COc1ccc(-c2noc(C3CC(=O)N(c4ccc(OC)c(Cl)c4)C3)n2)c(OC)c1 (centres undefined) | 1010 s
